Test results as given in patent publication US6379720B1, “Compositions containing hops extract and their use in water systems and process streams to control biological fouling” (Nalco Chemical Company, priority 2000, dated 2002).
Several values for one entry are separate records, joined by “and”; a condition that tells them apart may be missing. Equal entries are not always repeated.

Test system: Scenedesmus obliquus green algae
Assay: Synergism test of hops extract/biocide combinations (Kull Synergism Index), chlorophyll OD 650 nm endpoint
Type: cell-based
Description: The accepted method used to determined synergism is described by Kull, F. C., Eisman, P. C., Sylwestrowicz, H. D., and Mayer, R. L. in Applied Microbiology 9:538-541 (1961), and is well known in the art.
The equation for determining synergism is as follows:
QaQA+Qb/QB=Synergism Index (SI)
Where QA and QB are the concentrations of compounds A or B that produce an endpoint when acting alone, and where Qa and Qb are the concentrations of compounds A or B acting in the A/B combination required to produce an endpoint. The endpoint is defined by the particular test method, for example, an optical density.
To determine synergism, one evaluates the Synergism Index (SI).
The efficacy of the invention was tested in the following manner:
Scenedesmus obliquus green algae cells were prepared in synthetic cooling water (pH 8.2) to a concentration of 10^7 CFU/ml. 100 ul of the algae suspension were added to 200 ul aliquots of hops extract antimicrobial compositions in synthetic cooling water contained in 96 well microplates (FALCON® 3075). A wide range of hops extract/biocide combinations were tested. Microplates were covered with the provided lid and incubated at 25° C. for six days with 16 hour/8 hour light/dark cycles (cool-white fluorescent lamps, 1255 lux). Following incubation, supernatant was removed from each microplate well by vacuum aspiration. […] 200 ul of dimethylsulfoxide (DMSO) were added to each microplate well to dissolve the algae cells and extract chlorophyll. The optical density at 650 nm of each extraction was determined using a plate reader (Beckman Biomek®).
A wide range of ratios of the two active ingredients can be used, depending on several factors including the microorganisms to be controlled. In this example, data designated as QA and Qa in each case are for hops extract and data designated as QB and Qb are for the other antimicrobial (IZN, POLYQUAT, GLUT, TBTZ, DCOI, THPS, BNEF, DBNPA, and DTEA).

[1] = with hops extract 8 ppm, Endpoint OD650 = 0.300
[2] = with hops extract 16 ppm, Endpoint OD650 = 0.300

In the case of `O=[N+]([O-])C(Br)=Cc1ccco1` [BNEF, 2-(2-bromo-2-nitroethenyl)furan], the “QB (concentration of the antimicrobial that produces the endpoint when acting alone)” value (Endpoint OD650 = 0.300, (32) used for synergy calculations) is reported as >16 (32) ppm, the “Qb (concentration of the antimicrobial in the combination required to produce the endpoint)” value (with hops extract 4 ppm, Endpoint OD650 = 0.300) is reported as 16 ppm and the “Qb (concentration of the antimicrobial in the combination required to produce the endpoint)” value [1] is reported as 16 ppm. For the same molecule, the “Qb (concentration of the antimicrobial in the combination required to produce the endpoint)” value [2] was 1 ppm.
With `N#CC(Br)(Br)C(N)=O` [DBNPA, 2,2-dibromo-3-nitrilopropionamide] the “QB (concentration of the antimicrobial that produces the endpoint when acting alone)” value (Endpoint OD650 = 0.200, (32) used for synergy calculations) was >16 (32) ppm, the “Qb (concentration of the antimicrobial in the combination required to produce the endpoint)” value (with hops extract 4 ppm, Endpoint OD650 = 0.200) was 16 ppm and the “Qb (concentration of the antimicrobial in the combination required to produce the endpoint)” value (with hops extract 16 ppm, Endpoint OD650 = 0.200) was 16 ppm.
`CCCCCCCCn1sc(Cl)c(Cl)c1=O` [DCOI, 4,5-dichloro-2-n-octyl-4-isothiazolin-3-one] was tested, and the “QB (concentration of the antimicrobial that produces the endpoint when acting alone)” value (Endpoint OD650 = 0.150, (32) used for synergy calculations) was >16 (32) ppm, the “Qb (concentration of the antimicrobial in the combination required to produce the endpoint)” value (with hops extract 4 ppm, Endpoint OD650 = 0.150) was 16 ppm and the “Qb (concentration of the antimicrobial in the combination required to produce the endpoint)” value (with hops extract 64 ppm, Endpoint OD650 = 0.150) was 8 ppm and 16 ppm.
For `CCCCCCCCCCSCCN` [DTEA, 2-(decylthio)ethanamine], the “QB (concentration of the antimicrobial that produces the endpoint when acting alone)” value (Endpoint OD650 = 0.300) was 16 ppm, the “Qb (concentration of the antimicrobial in the combination required to produce the endpoint)” value [1] was 4 ppm and 8 ppm and the “Qb (concentration of the antimicrobial in the combination required to produce the endpoint)” value [2] was 1 ppm and 2 ppm.
`O=CCCCC=O` [GLUT, glutaraldehyde] was tested, and the “QB (concentration of the antimicrobial that produces the endpoint when acting alone)” value (Endpoint OD650 = 0.250, (32) used for synergy calculations) was >16 (32) ppm and the “Qb (concentration of the antimicrobial in the combination required to produce the endpoint)” value (with hops extract 16 ppm, Endpoint OD650 = 0.250) was 4 ppm.
`CCNc1nc(Cl)nc(NC(C)(C)C)n1` [TBTZ, 2-(tert-butylamino)-4-chloro-6(ethylamino)-s-triazine] was tested, and the “QB (concentration of the antimicrobial that produces the endpoint when acting alone)” value (Endpoint OD650 = 0.250) was 16 ppm.
For methylchloro/isothiazolone [IZN], the “QB (concentration of the antimicrobial that produces the endpoint when acting alone)” value (Endpoint OD650 = 0.100, (32) used for synergy calculations) was >16 (32) ppm, the “Qb (concentration of the antimicrobial in the combination required to produce the endpoint)” value (with hops extract 16 ppm, Endpoint OD650 = 0.100) was 16 ppm and the “Qb (concentration of the antimicrobial in the combination required to produce the endpoint)” value (with hops extract 32 ppm, Endpoint OD650 = 0.100) was 16 ppm. The “Qb (concentration of the antimicrobial in the combination required to produce the endpoint)” value (with hops extract 64 ppm, Endpoint OD650 = 0.100) was 8 ppm and 16 ppm, the “Qb (concentration of the antimicrobial in the combination required to produce the endpoint)” value (with hops extract 128 ppm, Endpoint OD650 = 0.100) was 8 ppm and 16 ppm and the “Qb (concentration of the antimicrobial in the combination required to produce the endpoint)” value (with hops extract 256 ppm, Endpoint OD650 = 0.100) was 8 ppm.
With “tetrakishydroxymethyl phosphonium sulfate [THPS]” the “QB (concentration of the antimicrobial that produces the endpoint when acting alone)” value (Endpoint OD650 = 0.250) was 16 ppm, the “Qb (concentration of the antimicrobial in the combination required to produce the endpoint)” value (with hops extract 4 ppm, Endpoint OD650 = 0.250) was 4 ppm and the “Qb (concentration of the antimicrobial in the combination required to produce the endpoint)” value (with hops extract 8 ppm, Endpoint OD650 = 0.250) was 4 ppm and 8 ppm.
